Assay results as given in US20230052017A1, “New compounds for treatment of diseases related to DUX4 expression” (Facio Intellectual Property B.V., priority 2019, published 2023).

System: DUX4
Assay: DUX4 repression assay in primary FSHD cells (protocol of Example 2 of WO2019/115711)
Assay type: cell-based, human
Conditions: incubated 72 hours, reference compounds
From the text: Following the central role of DUX4 in the consensus disease hypothesis for FSHD, a therapeutic approach with a disease-modifying potential is expected to rely on the inhibition of DUX4. The inventors have identified the compounds according to the invention as being able to achieve DUX4 repression in muscle cells. This invention has been made using primary FSHD patient-derived muscle cells. Because of the primate-specificity of the FSHD locus and questionable relevance of recombinant, immortalized, or tumorigenic cell or animal models to study endogenous DUX4 regulatory mechanisms, primary patient-derived muscle cells are the most relevant disease model. Assays based on immortalized cells bear the risk of altered epigenomes, thereby limiting their relevance in studying the endogenous regulation of DUX4 expression. Particularly the subtelomeric location of D4Z4 and the importance of the D4Z4 epigenome in the stability of DUX4 repression (Stadler et al., 2013, DOI: 10.1038/nsmb.2571) underscore the necessity of using primary muscle cells to discover physiologically relevant drug targets that regulate the expression of DUX4.
The DUX4 repression of compounds of general formula (I) was assayed following a known protocol (the protocol of Example 2 of WO2019/115711). Several compounds were incubated with primary FSHD cells for 72 hours. Results are shown in Table 4, showing DUX4 Count % inhibition.

First: CN1CCN(C(=O)Cc2nn(C(C)(C)C)c(-c3ccc(F)cc3)c2-c2ccncc2)CC1 [Compound 106, 2-[1-tert-butyl-5-(4-fluorophenyl)-4-(pyridin-4-yl)-1H-pyrazol-3-yl]-1-(4-methylpiperazin-1-yl)ethan-1-one]
Second: CN1CCN(C(=O)Cn2cnc(-c3ccc(F)cc3)c2-c2cccnc2)CC1 [Compound 107, 2-[4-(4-fluorophenyl)-5-(pyridin-3-yl)-1H-imidazol-1-yl]-1-(4-methylpiperazin-1-yl)ethan-1-one]
The “DUX4 count % inhibition” value of the first is higher: 17.3% for the first, 10.7% for the second.

For `O=C(Cn1cnc(-c2ccc(F)cc2)c1-c1cccnc1)N1CCNCC1` [Compound 108, 2-[4-(4-fluorophenyl)-5-(pyridin-3-yl)-1H-imidazol-1-yl]-1-(piperazin-1-yl)ethan-1-one], the “DUX4 count % inhibition” value was 6.6%.
